Source: patent US10160747B2, “Compounds and methods for kinase modulation, and indications therefor” (Plexxikon Inc., priority 2016, dated 2018)

Experiments:
FLT3-ITD = molecular target: T1, FLT3-ITD (Homo sapiens, UniProt P36888); assay: FLT3-ITD recombinant enzyme kinase assay (AlphaScreen); type: biochemical; settings: 8 pt; read-out: FLT3_ITD 8 pt: IC50
T1 sequence (P36888 1-993): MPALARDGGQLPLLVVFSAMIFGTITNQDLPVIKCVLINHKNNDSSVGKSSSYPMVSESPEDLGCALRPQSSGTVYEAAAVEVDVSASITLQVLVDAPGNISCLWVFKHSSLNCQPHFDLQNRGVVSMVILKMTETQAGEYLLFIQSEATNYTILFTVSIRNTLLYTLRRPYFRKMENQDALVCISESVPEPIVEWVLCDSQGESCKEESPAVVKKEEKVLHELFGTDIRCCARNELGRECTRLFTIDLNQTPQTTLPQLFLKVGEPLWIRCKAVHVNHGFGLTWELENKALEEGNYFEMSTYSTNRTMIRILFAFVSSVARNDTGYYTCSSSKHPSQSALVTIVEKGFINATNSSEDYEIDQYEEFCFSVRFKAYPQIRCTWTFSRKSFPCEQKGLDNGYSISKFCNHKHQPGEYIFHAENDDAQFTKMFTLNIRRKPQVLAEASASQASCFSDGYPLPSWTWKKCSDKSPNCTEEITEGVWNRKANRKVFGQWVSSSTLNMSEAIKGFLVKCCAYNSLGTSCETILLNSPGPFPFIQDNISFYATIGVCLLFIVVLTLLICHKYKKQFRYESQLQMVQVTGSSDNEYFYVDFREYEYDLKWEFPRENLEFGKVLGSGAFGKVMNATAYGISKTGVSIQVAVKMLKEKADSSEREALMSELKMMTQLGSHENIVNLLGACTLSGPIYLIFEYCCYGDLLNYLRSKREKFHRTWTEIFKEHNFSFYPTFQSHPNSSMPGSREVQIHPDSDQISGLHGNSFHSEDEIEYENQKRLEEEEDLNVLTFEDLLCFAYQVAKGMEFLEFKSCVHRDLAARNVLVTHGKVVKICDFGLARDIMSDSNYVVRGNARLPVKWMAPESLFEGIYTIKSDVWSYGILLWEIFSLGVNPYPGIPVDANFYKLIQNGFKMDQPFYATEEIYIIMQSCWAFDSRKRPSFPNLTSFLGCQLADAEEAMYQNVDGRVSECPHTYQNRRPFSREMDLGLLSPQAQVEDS
Procedure, shortened: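 IC50 values come from AlphaScreen proximity signal: phosphorylated biotin-poly(Glu4-Tyr) (30 nM) bridges streptavidin donor and anti-phosphotyrosine PY20 acceptor beads. Enzyme reactions ran at 100 μM ATP for c-KIT versus 10 μM for both FLT3 mutants (ITD, D835Y); beads added in stop buffer, room temperature.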

[1] = system: MOLM-14 F691L (endogenous FLT3 ITD and transfected FLT3 F691L); assay: MOLM-14 F691L cell proliferation assay (CellTiter-Glo); type: cell-based; settings: Homo sapiens, MOLM-14, 72 h; 3 d growth, GMean
Procedure, shortened: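 MOLM-14 cells (FLT3 ITD) carrying D835Y or F691L, 1×10^4 cells/well, eight 1:3 dilutions from 1 μM final, 0.2% DMSO, 3 days at 37 °C, 5% CO2. Viability by CellTiter-Glo luminescence (ATP content); IC50 from concentration-response.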

| Compound | IC50 (FLT3-ITD) [µM] | IC50 [1] [µM] |
| --- | --- | --- |
| CC(C)(O)C#Cc1cc2cc(-c3ccc(CC(=O)Nc4cncc(C(F)(F)F)c4)cc3)cnc2[nH]1 [Compound P-0204, 2-[4-[2-(3-hydroxy-3-methyl-but-1-ynyl)-1H-pyrrolo[2,3-b]pyridin-5-yl]phenyl]-N-[5-(trifluoromethyl)-3-pyridyl]acetamide] | 0.0001 to 10 | 0.0001 to 10 |
| Cn1cc(Nc2ncc(-c3ccc(CC(=O)Nc4cncc(C(F)(F)F)c4)cc3F)cn2)cn1 [Compound P-0205, 2-[3-fluoro-4-[2-[(1-methylpyrazol-4-yl)amino]pyrimidin-5-yl]phenyl]-N-[5-(trifluoromethyl)-3-pyridyl]acetamide] | 0.0001 to 10 | 0.0001 to 10 |
| COc1ncc(NC(=O)Cc2ccc(-c3cnc(Nc4cnn(C)c4)nc3)c(F)c2)cc1C(F)(F)F [Compound P-0206, 2-[3-fluoro-4-[2-[(1-methylpyrazol-4-yl)amino]pyrimidin-5-yl]phenyl]-N-[6-methoxy-5-(trifluoromethyl)-3-pyridyl]acetamide] | 0.0001 to 10 | 0.0001 to 10 |
| Cn1cc(Nc2ncc(-c3cc(F)c(CC(=O)Nc4cncc(C(F)(F)F)c4)cc3F)cn2)cn1 [Compound P-0207, 2-[2,5-difluoro-4-[2-[(1-methylpyrazol-4-yl)amino]pyrimidin-5-yl]phenyl]-N-[5-(trifluoromethyl)-3-pyridyl]acetamide] | 0.0001 to 10 | 0.0001 to 10 |
| O=C(Cc1ccc(-c2cnc(Nc3cnn(C(F)F)c3)nc2)cc1)Nc1cncc(C(F)(F)F)c1 [Compound P-0209, 2-[4-[2-[[1-(difluoromethyl)pyrazol-4-yl]amino]pyrimidin-5-yl]phenyl]-N-[5-(trifluoromethyl)-3-pyridyl]acetamide] | 0.0001 to 10 | 0.0001 to 10 |
| Cc1ncc(NC(=O)Cc2ccc(-c3cnc(Nc4cnn(C(F)F)c4)nc3)cc2)cc1C(F)(F)F [Compound P-0210, 2-[4-[2-[[1-(difluoromethyl)pyrazol-4-yl]amino]pyrimidin-5-yl]phenyl]-N-[6-methyl-5-(trifluoromethyl)-3-pyridyl]acetamide] | 0.0001 to 10 | 0.0001 to 10 |
| COc1ncc(NC(=O)Cc2ccc(-c3cnc(Nc4cnn(C(F)F)c4)nc3)cc2)cc1C(F)(F)F [Compound P-0211, 2-[4-[2-[[1-(difluoromethyl)pyrazol-4-yl]amino]pyrimidin-5-yl]phenyl]-N-[6-methoxy-5-(trifluoromethyl)-3-pyridyl]acetamide] | 0.0001 to 10 | 0.0001 to 10 |
| COc1ncc(NC(=O)Cc2ccc(-c3cnc4[nH]nc(OC)c4c3)cc2)cc1C(F)(F)F [Compound P-0212, 2-[4-(3-methoxy-1H-pyrazolo[3,4-b]pyridin-5-yl)phenyl]-N-[6-methoxy-5-(trifluoromethyl)-3-pyridyl]acetamide] | 0.0001 to 10 | 0.0001 to 10 |
| CCOc1n[nH]c2ncc(-c3ccc(CC(=O)Nc4cnc(OC)c(C(F)(F)F)c4)cc3)cc12 [Compound P-0213, 2-(4-(3-ethoxy-1H-pyrazolo[3,4-b]pyridin-5-yl)phenyl)-N-(6-methoxy-5-(trifluoromethyl)pyridin-3-yl)acetamide] | 0.0001 to 10 | 0.0001 to 10 |
| COc1ncc(NC(=O)Cc2ccc(-c3cnc4[nH]c(C#CC(C)(C)O)cc4c3)cc2)cc1C(F)(F)F [Compound P-0214, 2-(4-(2-(3-hydroxy-3-methylbut-1-yn-1-yl)-1H-pyrrolo[2,3-b]pyridin-5-yl)phenyl)-N-(6-methoxy-5-(trifluoromethyl)pyridin-3-yl)acetamide] | 0.0001 to 10 | 0.0001 to 10 |
| COc1ncc(NC(=O)Cc2ccc(-c3cnc4[nH]nc(NC(=O)C(F)(F)F)c4c3)cc2)cc1C(F)(F)F [Compound P-0215, 2,2,2-trifluoro-N-[5-[4-[2-[[6-methoxy-5-(trifluoromethyl)-3-pyridyl]amino]-2-oxo-ethyl]phenyl]-1H-pyrazolo[3,4-b]pyridin-3-yl]acetamide] | 0.0001 to 10 | 0.0001 to 10 |
| COc1ncc(NC(=O)Cc2ccc(-c3cnc4[nH]nc(N)c4c3)cc2)cc1C(F)(F)F [Compound P-0216, 2-(4-(3-amino-1H-pyrazolo[3,4-b]pyridin-5-yl)phenyl)-N-(6-methoxy-5-(trifluoromethyl)pyridin-3-yl)acetamide] | 0.0001 to 10 | 0.0001 to 10 |
| CCOc1n[nH]c2ncc(-c3ccc(CC(=O)Nc4cnc(C)c(C(F)(F)F)c4)cc3)cc12 [Compound P-0217, 2-[4-(3-ethoxy-1H-pyrazolo[3,4-b]pyridin-5-yl)phenyl]-N-[6-methyl-5-(trifluoromethyl)-3-pyridyl]acetamide] | 0.0001 to 10 | 0.0001 to 10 |
| COc1n[nH]c2ncc(-c3ccc(CC(=O)Nc4cnc(C)c(C(F)(F)F)c4)cc3)cc12 [Compound P-0218, 2-[4-(3-methoxy-1H-pyrazolo[3,4-b]pyridin-5-yl)phenyl]-N-[6-methyl-5-(trifluoromethyl)-3-pyridyl]acetamide] | 0.0001 to 10 | 0.0001 to 10 |
| COc1ncc(NC(=O)Cc2ccc(-c3cnc4[nH]c(C#CC(C)(C)C)cc4c3)cc2)cc1C(F)(F)F [Compound P-0219, 2-[4-[2-(3,3-dimethylbut-1-ynyl)-1H-pyrrolo[2,3-b]pyridin-5-yl]phenyl]-N-[6-methoxy-5-(trifluoromethyl)-3-pyridyl]acetamide] | 0.0001 to 10 | 0.0001 to 10 |
| Cc1ncc(NC(=O)Cc2ccc(-c3cnc4[nH]c(C#CC(C)(C)O)cc4c3)cc2)cc1C(F)(F)F [Compound P-0220, 2-[4-[2-(3-hydroxy-3-methyl-but-1-ynyl)-1H-pyrrolo[2,3-b]pyridin-5-yl]phenyl]-N-[6-methyl-5-(trifluoromethyl)-3-pyridyl]acetamide] | 0.0001 to 10 | 0.0001 to 10 |
| COc1ncc(NC(=O)Cc2ccc(-c3cnc(Nc4cn[nH]c4C)nc3)cc2)cc1C(F)(F)F [Compound P-0221, N-[6-methoxy-5-(trifluoromethyl)-3-pyridyl]-2-[4-[2-[(5-methyl-1H-pyrazol-4-yl)amino]pyrimidin-5-yl]phenyl]acetamide] | 0.0001 to 10 | 0.0001 to 10 |
| COCCn1cc(Nc2ncc(-c3ccc(CC(=O)Nc4cc(C(F)(F)F)ccn4)cc3)cn2)cn1 [Compound P-0222, 2-[4-[2-[[1-(2-methoxyethyl)pyrazol-4-yl]amino]pyrimidin-5-yl]phenyl]-N-[4-(trifluoromethyl)-2-pyridyl]acetamide] | 0.0001 to 10 | 0.0001 to 10 |
| COc1ncc(NC(=O)Cc2ccc(-c3cnc4[nH]c(C#Cc5cncn5C)cc4c3)cc2)cc1C(F)(F)F [Compound P-0227, N-[6-methoxy-5-(trifluoromethyl)-3-pyridyl]-2-[4-[2-[2-(3-methylimidazol-4-yl)ethynyl]-1H-pyrrolo[2,3-b]pyridin-5-yl]phenyl]acetamide] | 0.0001 to 10 | 0.0001 to 10 |
| Cc1nn(C)cc1Nc1ncc(-c2ccc(CC(=O)Nc3cnc(C)c(C(F)(F)F)c3)cc2)cn1 [Compound P-0228, 2-[4-[2-[(1,3-dimethylpyrazol-4-yl)amino]pyrimidin-5-yl]phenyl]-N-[6-methyl-5-(trifluoromethyl)-3-pyridyl]acetamide] | 0.0001 to 10 | 0.0001 to 10 |
| Cc1ncc(NC(=O)Cc2ccc(-c3cnc(Nc4cnn(C)c4C)nc3)cc2)cc1C(F)(F)F [Compound P-0229, 2-[4-[2-[(1,5-dimethylpyrazol-4-yl)amino]pyrimidin-5-yl]phenyl]-N-[6-methyl-5-(trifluoromethyl)-3-pyridyl]acetamide] | 0.0001 to 10 | 0.0001 to 10 |
